Reference: patent EP0531958A1, “6-Aminoquinolones, their synthesis and their use as antibacterial agents” (MEDIOLANUM FARMACEUTICI S.P.A., priority 1991, dated 1993)
In brackets after ≈: the same amount, converted by molar mass. Where two headings read alike, the source gives them in different places.

Key:
Assay type in all cases: cell-based
[1] = tested on: Klebsiella pneumoniae ATCC 10031; experiment: MIC test, agar dilution with Steers multiwell inoculator; conditions: ATCC10031, TSA dishes, 24 h at 35°C, read-out: Minimum Inhibiting Concentration
Method: (§1) As to the antibacterial activity, there was determined the Least (Minimum) Inhibiting Concentration (MIC), by working according to the following operative conditions.
(§2) There were used suspensions of test germs (5 gram-positive and 15 gram-negative) having a known titre, kept freezed at -80°C and diluted, at the time of use, in peptonized water up to a concentration of 1-2.10⁷ cfu/ml.
(§3) A few mg of the products, according to the invention were weighed sufficient for preparing parent solutions in DMSO + NaOH (1N) containing 2560 µg/ml (64µg/ml/dish). From the thus prepared parent solutions there were prepared 12 serial dilutions (1:2) down to the concentration of 1.25 µg/ml.
(§4) 0.5 ml of the different dilutions of each product were distributed on dishes containing 19.5 ml of agarized medium (TSA), maintained in a fluid state at the temperature of 50°C. After slight stirring, the dishes were made to solidify and dry under hood (laminar flow).
(§5) The MIC tests (Least or "Minimum" Inhibiting Concentration) were performed by using a Steers multiwell inoculator having 36 wells, each containing 200 µl of bacterial suspension.
(§6) After inoculation, the dishes were placed into a thermostat and checked after 24 h of incubation at 35°C.
(§7) The MIC is defined as the lowermost product concentration (µg/ml) inhibiting the visible growth of the microorganisms.

[2] = tested on: Escherichia coli ATCC 8739; experiment: as above; conditions: ATCC8739, TSA dishes, 24 h at 35°C, read-out: Minimum Inhibiting Concentration
Method: as §1, §2, §3, §4, §5, §6, §7

[3] = tested on: Acinebacter calcoloaceticus OSMPV 1130; experiment: as above; conditions: TSA dishes, 24 h at 35°C, read-out: Minimum Inhibiting Concentration
Method: as §1, §2, §3, §4, §5, §6, §7

[4] = tested on: Enterobacter cloacae OMNF 1174; experiment: as above; conditions: OMNF1174, TSA dishes, 24 h at 35°C, read-out: Minimum Inhibiting Concentration
Method: as §1, §2, §3, §4, §5, §6, §7

[5] = tested on: Providencia stuardii CNUR 5; experiment: as above; conditions: CNUR5, TSA dishes, 24 h at 35°C, read-out: Minimum Inhibiting Concentration
Method: as §1, §2, §3, §4, §5, §6, §7

[6] = tested on: Pseudomonas aeruginosa CNUR 4; experiment: as above; conditions: CNUR4, TSA dishes, 24 h at 35°C, read-out: Minimum Inhibiting Concentration
Method: as §1, §2, §3, §4, §5, §6, §7

[7] = tested on: Enterobacter cloacae OMNF 1153; experiment: as above; conditions: OMNF1153, TSA dishes, 24 h at 35°C, read-out: Minimum Inhibiting Concentration
Method: as §1, §2, §3, §4, §5, §6, §7

[8] = tested on: Pseudomonas aeruginosa ATCC 9027; experiment: as above; conditions: ATCC9027, TSA dishes, 24 h at 35°C, read-out: Minimum Inhibiting Concentration
Method: as §1, §2, §3, §4, §5, §6, §7

Escherichia coli ISF 432 = experiment: as above; conditions: ISF432, TSA dishes, 24 h at 35°C, read-out: Minimum Inhibiting Concentration
Method: as §1, §2, §3, §4, §5, §6, §7

[9] = tested on: Streptococcus facealis LEP Br.; experiment: as above; conditions: TSA dishes, 24 h at 35°C, read-out: Minimum Inhibiting Concentration
Method: as §1, §2, §3, §4, §5, §6, §7

[10] = tested on: Staphylococcus aureus ATCC 6538; experiment: as above; conditions: ATCC6538, TSA dishes, 24 h at 35°C, read-out: Minimum Inhibiting Concentration
Method: as §1, §2, §3, §4, §5, §6, §7

[11] = tested on: Staphylococcus epidermidis CPHL A2; experiment: as above; conditions: CPHLA2, TSA dishes, 24 h at 35°C, read-out: Minimum Inhibiting Concentration
Method: as §1, §2, §3, §4, §5, §6, §7

Escherichia coli CNUR 8 = experiment: as above; conditions: CNUR8, TSA dishes, 24 h at 35°C, read-out: Minimum Inhibiting Concentration
Method: as §1, §2, §3, §4, §5, §6, §7

[12] = tested on: Pseudomonas aeruginosa CNUR 2; experiment: as above; conditions: CNUR2, TSA dishes, 24 h at 35°C, read-out: Minimum Inhibiting Concentration
Method: as §1, §2, §3, §4, §5, §6, §7

Proteus vulgaris CNUR 6 = experiment: as above; conditions: CNUR6, TSA dishes, 24 h at 35°C, read-out: Minimum Inhibiting Concentration
Method: as §1, §2, §3, §4, §5, §6, §7

[13] = tested on: Staphylococcus aureus MPR 5; experiment: as above; conditions: MPR5, TSA dishes, 24 h at 35°C, read-out: Minimum Inhibiting Concentration
Method: as §1, §2, §3, §4, §5, §6, §7

Escherichia coli 120 = experiment: as above; conditions: TSA dishes, 24 h at 35°C, read-out: Minimum Inhibiting Concentration
Method: as §1, §2, §3, §4, §5, §6, §7

[14] = tested on: Staphylococcus epidermidis HCF Berset C.; experiment: as above; conditions: TSA dishes, 24 h at 35°C, read-out: Minimum Inhibiting Concentration
Method: as §1, §2, §3, §4, §5, §6, §7

Escherichia coli CNUR 1 = experiment: as above; conditions: CNUR1, TSA dishes, 24 h at 35°C, read-out: Minimum Inhibiting Concentration
Method: as §1, §2, §3, §4, §5, §6, §7

Shighella enteritidis = experiment: as above; conditions: TSA dishes, 24 h at 35°C, read-out: Minimum Inhibiting Concentration
Method: as §1, §2, §3, §4, §5, §6, §7

Gram + = experiment: MIC test, average over the 5 gram-positive test germs; conditions: 24 h
Method: as §1, §2, §3, §4, §5, §6, §7

Gram - = experiment: MIC test, average over the 15 gram-negative test germs; conditions: 24 h
Method: as §1, §2, §3, §4, §5, §6, §7

[15] = geometrical average of the MIC over the 15 Gram - strains, read-out: Geometrical Average
[16] = mean log of the MIC over the 15 Gram - strains, read-out: Log (converted)
[17] = geometrical average of the MIC over the 5 Gram + strains, read-out: Geometrical Average

CN1CCN(c2cc3c(cc2N)c(=O)c(C(=O)O)cn3C2CC2)CC1 [Compound 8]
MIC [1]: 0.03 µg/mL (≈ 0.0876 µM)
MIC [2]: 0.25 µg/mL (≈ 0.73 µM)
MIC [3]: 4 µg/mL (≈ 11.7 µM)
MIC [4]: 0.25 µg/mL (≈ 0.73 µM)
MIC [5]: 8 µg/mL (≈ 23.4 µM)
MIC [6]: 64 µg/mL (≈ 187 µM)
MIC [7]: 0.25 µg/mL (≈ 0.73 µM)
MIC [8]: 4 µg/mL (≈ 11.7 µM)
MIC (Escherichia coli ISF 432): 0.03 µg/mL (≈ 0.0876 µM)
MIC [9]: 32 µg/mL (≈ 93.5 µM)
MIC [10]: 2 µg/mL (≈ 5.84 µM)
MIC [11]: 2 µg/mL (≈ 5.84 µM)
MIC (Escherichia coli CNUR 8): 0.12 µg/mL (≈ 0.35 µM)
MIC [12]: 16 µg/mL (≈ 46.7 µM)
MIC (Proteus vulgaris CNUR 6): 64 µg/mL (≈ 187 µM)
MIC [13]: 2 µg/mL (≈ 5.84 µM)
MIC (Escherichia coli 120): 0.12 µg/mL (≈ 0.35 µM)
MIC [14]: 4 µg/mL (≈ 11.7 µM)
MIC (Escherichia coli CNUR 1): 0.25 µg/mL (≈ 0.73 µM)
MIC (Shighella enteritidis): 0.25 µg/mL (≈ 0.73 µM)
MIC (Gram +; read-out: Log (converted)): 4 µg/mL (≈ 11.7 µM)
MIC (Gram -; [15]): 0.861 µg/mL (≈ 2.51 µM)
MIC (Gram -; [16]): 0.861 µg/mL (≈ 2.51 µM)

Nc1cc2c(=O)c(C(=O)O)cn(C3CC3)c2cc1N1CCNCC1 [Compound 9]
MIC [1]: 0.25 µg/mL (≈ 0.761 µM)
MIC [2]: 0.25 µg/mL (≈ 0.761 µM)
MIC [3]: 16 µg/mL (≈ 48.7 µM)
MIC [4]: 0.25 µg/mL (≈ 0.761 µM)
MIC [5]: 32 µg/mL (≈ 97.5 µM)
MIC [6]: 64 µg/mL (≈ 195 µM)
MIC [7]: 0.5 µg/mL (≈ 1.52 µM)
MIC [8]: 2 µg/mL (≈ 6.09 µM)
MIC (Escherichia coli ISF 432): 0.03 µg/mL (≈ 0.0914 µM)
MIC [9]: 128 µg/mL (≈ 390 µM)
MIC [10]: 64 µg/mL (≈ 195 µM)
MIC [11]: 16 µg/mL (≈ 48.7 µM)
MIC (Escherichia coli CNUR 8): 0.25 µg/mL (≈ 0.761 µM)
MIC [12]: 8 µg/mL (≈ 24.4 µM)
MIC (Proteus vulgaris CNUR 6): 32 µg/mL (≈ 97.5 µM)
MIC [13]: 64 µg/mL (≈ 195 µM)
MIC (Escherichia coli 120): 0.25 µg/mL (≈ 0.761 µM)
MIC [14]: 16 µg/mL (≈ 48.7 µM)
MIC (Escherichia coli CNUR 1): 0.25 µg/mL (≈ 0.761 µM)
MIC (Shighella enteritidis): 0.5 µg/mL (≈ 1.52 µM)
MIC (Gram +; [17]): 42.2 µg/mL
MIC (Gram +; read-out: Log (converted)): 42.2 µg/mL (≈ 128 µM)
MIC (Gram -; [15]): 1.26 µg/mL (≈ 3.82 µM)
MIC (Gram -; [16]): 1.26 µg/mL (≈ 3.83 µM)

Nc1cc2c(=O)c(C(=O)O)cn(C3CC3)c2cc1N1CCCC1 [Compound 10]
MIC [1]: 0.25 µg/mL (≈ 0.798 µM)
MIC [2]: 0.25 µg/mL (≈ 0.798 µM)
MIC [3]: 128 µg/mL (≈ 408 µM)
MIC [4]: 8 µg/mL (≈ 25.5 µM)
MIC [5]: 128 µg/mL (≈ 408 µM)
MIC [6]: 128 µg/mL (≈ 408 µM)
MIC [7]: 16 µg/mL (≈ 51.1 µM)
MIC [8]: 128 µg/mL (≈ 408 µM)
MIC (Escherichia coli ISF 432): 0.25 µg/mL (≈ 0.798 µM)
MIC [9]: 128 µg/mL (≈ 408 µM)
MIC [10]: 128 µg/mL (≈ 408 µM)
MIC [11]: 128 µg/mL (≈ 408 µM)
MIC (Escherichia coli CNUR 8): 8 µg/mL (≈ 25.5 µM)
MIC [12]: 128 µg/mL (≈ 408 µM)
MIC (Proteus vulgaris CNUR 6): 128 µg/mL (≈ 408 µM)
MIC [13]: 128 µg/mL (≈ 408 µM)
MIC (Escherichia coli 120): 4 µg/mL (≈ 12.8 µM)
MIC [14]: 128 µg/mL (≈ 408 µM)
MIC (Escherichia coli CNUR 1): 16 µg/mL (≈ 51.1 µM)
MIC (Shighella enteritidis): 16 µg/mL (≈ 51.1 µM)
MIC (Gram +; read-out: Log (converted)): 128 µg/mL (≈ 408 µM)
MIC (Gram -; [15]): 13.3 µg/mL (≈ 42.4 µM)
MIC (Gram -; [16]): 13.3 µg/mL (≈ 42.5 µM)

CC1CN(c2cc3c(cc2N)c(=O)c(C(=O)O)cn3C2CC2)CC(C)N1 (stereo not shown) [Compound 11]
MIC [1]: 0.03 µg/mL (≈ 0.0842 µM)
MIC [2]: 0.03 µg/mL (≈ 0.0842 µM)
MIC [3]: 8 µg/mL (≈ 22.4 µM)
MIC [4]: 0.5 µg/mL (≈ 1.4 µM)
MIC [5]: 2 µg/mL (≈ 5.61 µM)
MIC [6]: 64 µg/mL (≈ 180 µM)
MIC [7]: 0.5 µg/mL (≈ 1.4 µM)
MIC [8]: 2 µg/mL (≈ 5.61 µM)
MIC (Escherichia coli ISF 432): 0.03 µg/mL (≈ 0.0842 µM)
MIC [9]: 32 µg/mL (≈ 89.8 µM)
MIC [10]: 8 µg/mL (≈ 22.4 µM)
MIC [11]: 2 µg/mL (≈ 5.61 µM)
MIC (Escherichia coli CNUR 8): 0.25 µg/mL (≈ 0.701 µM)
MIC [12]: 8 µg/mL (≈ 22.4 µM)
MIC (Proteus vulgaris CNUR 6): 64 µg/mL (≈ 180 µM)
MIC [13]: 8 µg/mL (≈ 22.4 µM)
MIC (Escherichia coli 120): 0.12 µg/mL (≈ 0.337 µM)
MIC [14]: 4 µg/mL (≈ 11.2 µM)
MIC (Escherichia coli CNUR 1): 0.25 µg/mL (≈ 0.701 µM)
MIC (Shighella enteritidis): 0.25 µg/mL (≈ 0.701 µM)
MIC (Gram +; [17]): 6.96 µg/mL
MIC (Gram +; read-out: Log (converted)): 6.97 µg/mL (≈ 19.5 µM)
MIC (Gram -; [15]): 0.75 µg/mL (≈ 2.1 µM)
MIC (Gram -; [16]): 0.75 µg/mL (≈ 2.1 µM)
